Test: mn = molality of the nth substance listed, in mol/kg
Conditions: 293 K, 100 kPa, Liquid, Alternating current cell with electrodes

CCC(=O)[O-].OCC[NH2+]CCO [bis(2-hydroxyethyl)ammonium propanoate] + O
Conditions	electrical conductivity [S/m]
m1 = 0.01926	0.109
m1 = 0.01974	0.104
m1 = 0.03749	0.196
m1 = 0.0377	0.192
m1 = 0.05722	0.296
m1 = 0.05727	0.296
m1 = 0.07596	0.375
m1 = 0.0761	0.365
m1 = 0.0957	0.456
m1 = 0.09617	0.447
m1 = 0.1142	0.528
m1 = 0.1152	0.519
m1 = 0.1335	0.601
m1 = 0.135	0.596
m1 = 0.1519	0.67
m1 = 0.1542	0.668
m1 = 0.1707	0.737
m1 = 0.1718	0.725
m1 = 0.1845	0.785
m1 = 0.1898	0.798
m1 = 0.2029	0.849
m1 = 0.2071	0.875
m1 = 0.22	0.901
m1 = 0.2243	0.942
m1 = 0.2375	0.955
m1 = 0.2406	0.997
m1 = 0.2535	1
m1 = 0.2571	1.03
m1 = 0.2696	1.05
m1 = 0.2722	1.08
m1 = 0.285	1.09
m1 = 0.2875	1.12
m1 = 0.3002	1.13
m1 = 0.3019	1.17
m1 = 0.3142	1.17
m1 = 0.3162	1.16
m1 = 0.3282	1.21
m1 = 0.3293	1.23
m1 = 0.3413	1.24
m1 = 0.3424	1.27
m1 = 0.3538	1.27
m1 = 0.3545	1.31
m1 = 0.3658	1.3
m1 = 0.366	1.35
m1 = 0.3774	1.39
m1 = 0.3775	1.32
m1 = 0.3881	1.41
m1 = 0.3884	1.36
m1 = 0.3986	1.44
m1 = 0.3992	1.39
m1 = 0.4083	1.47
m1 = 0.4092	1.41
m1 = 0.418	1.5
m1 = 0.419	1.44
m1 = 0.4271	1.53
m1 = 0.4283	1.46
m1 = 0.4361	1.55
m1 = 0.4372	1.49
m1 = 0.4445	1.57
m1 = 0.4457	1.51
m1 = 0.4527	1.6
m1 = 0.4539	1.53
m1 = 0.4617	1.56
m1 = 0.4692	1.58
m1 = 0.4759	1.59

CCCC(=O)O.OCCNCCO [diethanolamine butyrate] + O
Conditions	electrical conductivity [S/m]
m1 = 0.01798	0.077
m1 = 0.01805	0.09
m1 = 0.03516	0.166
m1 = 0.03577	0.142
m1 = 0.05397	0.257
m1 = 0.05531	0.207
m1 = 0.0709	0.318
m1 = 0.07433	0.284
m1 = 0.09407	0.346
m1 = 0.09424	0.389
m1 = 0.1085	0.453
m1 = 0.1122	0.403
m1 = 0.1275	0.519
m1 = 0.1316	0.486
m1 = 0.1455	0.581
m1 = 0.1496	0.538
m1 = 0.1638	0.641
m1 = 0.1683	0.577
m1 = 0.1807	0.696
m1 = 0.186	0.597
m1 = 0.1982	0.75
m1 = 0.2035	0.651
m1 = 0.2144	0.801
m1 = 0.2203	0.694
m1 = 0.231	0.87
m1 = 0.237	0.725
m1 = 0.2464	0.912
m1 = 0.2525	0.764
m1 = 0.2616	0.954
m1 = 0.2679	0.782
m1 = 0.2758	0.994
m1 = 0.2824	0.821
m1 = 0.2899	1.03
m1 = 0.297	0.862
m1 = 0.3032	1.06
m1 = 0.3106	0.908
m1 = 0.3162	1.1
m1 = 0.324	0.95
m1 = 0.3283	1.13
m1 = 0.3321	0.98
m1 = 0.3402	1.16
m1 = 0.3438	1
m1 = 0.3514	1.19
m1 = 0.3555	1.02
m1 = 0.3623	1.22
m1 = 0.3665	1.05
m1 = 0.3726	1.24
m1 = 0.3774	1.05
m1 = 0.3826	1.27
m1 = 0.3875	1.07
m1 = 0.3917	1.29
m1 = 0.3975	1.1
m1 = 0.4022	1.32
m1 = 0.4068	1.12
m1 = 0.4115	1.35
m1 = 0.416	1.14
m1 = 0.4201	1.38
m1 = 0.4245	1.16
m1 = 0.4284	1.4
m1 = 0.433	1.18
m1 = 0.4368	1.43
m1 = 0.4446	1.45

CCCCC(=O)O.OCCNCCO [diethanolamine pentanoate] + O
Conditions	electrical conductivity [S/m]
m1 = 0.01462	0.055
m1 = 0.01705	0.064
m1 = 0.03093	0.108
m1 = 0.03218	0.116
m1 = 0.04874	0.161
m1 = 0.0491	0.168
m1 = 0.06476	0.204
m1 = 0.06559	0.215
m1 = 0.08109	0.279
m1 = 0.08267	0.268
m1 = 0.09793	0.328
m1 = 0.09939	0.312
m1 = 0.1159	0.375
m1 = 0.117	0.365
m1 = 0.1326	0.42
m1 = 0.133	0.408
m1 = 0.1488	0.449
m1 = 0.1507	0.47
m1 = 0.163	0.486
m1 = 0.1668	0.512
m1 = 0.1779	0.524
m1 = 0.1838	0.557
m1 = 0.1916	0.526
m1 = 0.1994	0.595
m1 = 0.2058	0.558
m1 = 0.2152	0.634
m1 = 0.2197	0.593
m1 = 0.2297	0.669
m1 = 0.2336	0.624
m1 = 0.2447	0.706
m1 = 0.2467	0.655
m1 = 0.2584	0.739
m1 = 0.26	0.685
m1 = 0.2721	0.767
m1 = 0.2723	0.711
m1 = 0.2848	0.739
m1 = 0.2851	0.795
m1 = 0.2965	0.755
m1 = 0.2976	0.822
m1 = 0.3079	0.789
m1 = 0.3096	0.848
m1 = 0.3188	0.811
m1 = 0.3214	0.874
m1 = 0.3321	0.896
m1 = 0.3396	0.835
m1 = 0.3428	0.918
m1 = 0.3494	0.854
m1 = 0.3527	0.94
m1 = 0.3585	0.876
m1 = 0.3625	0.96
m1 = 0.3675	0.893
m1 = 0.3716	0.979
m1 = 0.376	0.914
m1 = 0.3806	0.999
m1 = 0.3844	0.925
m1 = 0.389	1.01
m1 = 0.3921	0.925
m1 = 0.3973	1.03
m1 = 0.3997	0.925
m1 = 0.4069	0.973
m1 = 0.4446	0.991
